According to patent publication US20090181890A1, “Amylin and Amylin Agonists for Treating Psychiatric Diseases and Disorders” (Amylin Pharmaceuticals , Inc., priority 2006, published 2009):
Values belong to the compound of their own block, whether it stands above or below them.

Legend:
mice [1] = conditions: mouse, in vivo
Procedure: The PCP-induced locomotion test is used with the open field activity chambers and measures locomotion, rearing, and stereotypic activity under amphetamine/PCP-induced conditions. The test has predictive validity for some antipsychotic drugs that normalize the hyperactivity and stereotypic behavior seen with amphetamine and PCP. See, for example, Williams et al. (2006) Prog. Neuropsychopharmacol. Biol. Psychiatry 30:239-243. Mice were injected with the test agent (rat amylin at 0.1, 1.0 or 10 mg/kg, 3 mg/kg clozapine (CZP), or vehicle) 15-30 minutes prior injection with 5 mg/kg PCP. The animals were then placed in the center of an open field and activity was recorded for 60 minutes. […] CZP is an atypical, second generation antipsychotic drug has a mixed receptor profile, including the dopamine receptor.

[2] = weight gain induced by clozapine; format: in vivo, rats; conditions: clozapine 0.025 and 0.25 mg/kg/day, s.c. osmotic pumps, 4 weeks; diet 58% kcal from fat; FIG. 7A
Procedure: The effect of amylin administration on weight gain induced by the second generation antipsychotic clozapine was examined. Adult, male Sprague-Dawley® rats (diet=58% kcal from fat) were implanted subcutaneously in the interscapular region with osmotic pumps that continuously delivered vehicle or drug for 4 weeks. In one experiment, rats were treated with vehicle or clozapine (0.025 and 0.25 mg/kg/day).

treated test animals = conditions: cited from earlier work
mice [3] = test: marble burying; format: in vivo
Procedure: To confirm the interpretation of the findings outlined under Example 1, a variety of animal behavior assays were performed to test for anxiolytic, antidepressant, and antipsychotic effects of amylin administration. […] These specific behavioral tests are known to be sensitive to anxiolytic, antidepressant, or antipsychotic drugs. For these assays, rat amylin was administered to mice at doses ranging from 0.1 to 10 mg/kg, intraperitoneally or via a subcutaneously implanted osmotic pump (ALZET®) containing vehicle or rat amylin, and their performance in the assay was assessed.
Marble burying is used as a model for both anxiety and obsessive-compulsive disorder. See, for example, Chaki et al. (2003) J. Pharmacol. Exp. Ther. 304:818-826. Anxiolytics suppress marble burying activity. Mice were injected with the test agent (rat amylin at 0.1, 1.0 or 10 mg/kg, […] buspirone, or vehicle) 15-30 minutes prior to the test. Mice were then placed individually in clean cages containing 5-cm of hard wood bedding and 20 marbles spaced evenly in rows of five. The number of marbles buried in 30 minutes was recorded. […] Buspirone is a partial 5-HT1A agonist and an known anxiolytic agent.

mice [4] = test: prepulse inhibition (PPI) test; format: in vivo; conditions: amylin at 10 mg/kg, haloperidol at 1 mg/kg; all prepulse levels (74, 78, and 82 dB); FIG. 5
Source text: The prepulse inhibition (PPI) test measures the reflex response to externally applied auditory stimulation (acoustic startle response) and is related to the deficiency in sensory-motor gating capacity seen in schizophrenia. The acoustic startle reflex is a very basic response to strong exteroceptive stimuli and is widely used to assess sensorimotor reactivity in animals and humans. A weak auditory stimulus (prepulse, 74-82 dB) given prior to the strong acoustic stimulus (120 dB) blunts the startle response. This blunting of the startle response is referred to as prepulse inhibition. See, for example, Conti et al (2005) Behavioral Neuroscience 119: 1052-1060. Antipsychotics increase the ability of the prepulse stimulus to blunt the startle response to the strong stimulus. Some psychotomimetic agents, such as phencyclidine (PCP) and ketamine, can actually reduce the percent prepulse inhibition and stimulate a psychotic-like state in animals, which can be antagonized by antipsychotic agents.
Mice were injected with the test agent (rat amylin at 0.1, 1.0 or 10 mg/kg, or vehicle) […] prior to the test or with haloperidol at 1 mg/kg 30 minutes prior to the test. The mice were placed into an animal holder and the holder placed onto a transducer platform in an acoustic chamber. […] The amount of the animal's “reaction” to the strong stimulus was recorded. […]

[5] = compared to human amylin; cited from earlier work
[6] = adsorption onto glass container in liquid form; format: physicochemical
mice [7] = test: novel object recognition; format: in vivo; conditions: rolipram 0.1 mg/kg IP 30 minutes prior to training; test 24 hours later; FIG. 8
Procedure: Since cognitive impairment is associated with psychoses, the effect of amylin administration on novel object recognition was examined. The novel object recognition task was used to measure working memory. See, for example, Miyamoto et al (2005) J. Neuroscience 25:1826-1835. Generally, animals spend less time exploring a previously presented object and more time exploring a novel object when both are presented together. Mice were injected IP with the test agent (rat amylin at 1.0 or 10 mg/kg, 0.1 mg/kg rolipram, or vehicle) 30 minutes prior to the training session. In the training, the mouse was allowed to explore two novel objects placed in the center of an open field. The time spent exploring each object was recorded. The objects differed in color, shape, and texture. Twenty-four hours after the training session, the mouse was placed back in the same open field in which one of the now familiar objects used in the training session was replaced by a novel object. The time spent exploring each object was again recorded. The memory index (or discrimination index) is the time spent exploring the novel object over the total time spent exploring both the novel and familiar objects (times 100). Results of this assay are shown in FIG. 8 where * is P<0.05 vs. vehicle.

baseline activity, agent alone (mice [1]): did affect baseline activity
weight gain compared to vehicle-treated rats [2]: increased weight gain
Compound: CN1CCN(C2=Nc3cc(Cl)ccc3Nc3ccccc32)CC1 [clozapine]

Compound: des-^1Lys^18Arg^25,28Pro-h-amylin (CNTATCATQRLANFLVRSSNNFGPILPSTNVGSNTY) [human amylin analog of formula I]
amylin activity in vivo (treated test animals): provoking marked hyperlactemia followed by hyperglycemia

Compound: O=C1CC2(CCCC2)CC(=O)N1CCCCN1CCN(c2ncccn2)CC1 [buspirone]
reduction in marble burying, significance (mice [3]; amylin at 10 mg/kg, buspirone at 20 mg/kg, P<0.05): statistically significant
number of marbles buried in 30 minutes (mice [3]; rat amylin 0.1, 1.0 or 10 mg/kg, buspirone 20/kg, 15-30 minutes prior, FIG. 3): reduced the number of marbles buried

Compound: O=C(CCCN1CCC(O)(c2ccc(Cl)cc2)CC1)c1ccc(F)cc1 [haloperidol]
percent of prepulse inhibition (mice [4]): significantly increased the percent of prepulse inhibition

Compound: ^18Arg^25,28Pro-h-amylin (KCNTATCATQRLANFLVRSSNNFGPILPSTNVGSNTY) [human amylin analog of formula I]
amylin activity in vivo (treated test animals): provoking marked hyperlactemia followed by hyperglycemia

Compound: CC[C@H](C)[C@H](NC(=O)[C@@H]1CCCN1C(=O)CNC(=O)[C@H](Cc1ccccc1)NC(=O)[C@H](CC(N)=O)NC(=O)[C@H](CC(N)=O)NC(=O)[C@H](CO)NC(=O)[C@H](CO)NC(=O)[C@H](Cc1c[nH]cn1)NC(=O)[C@@H](NC(=O)[C@H](CC(C)C)NC(=O)[C@H](Cc1ccccc1)NC(=O)[C@H](CC(N)=O)NC(=O)[C@H](C)NC(=O)[C@H](CC(C)C)NC(=O)[C@H](CCCNC(=N)N)NC(=O)[C@H](CCC(N)=O)NC(=O)[C@@H](NC(=O)[C@H](C)NC(=O)[C@@H]1CSSC[C@H](NC(=O)[C@@H](N)CCCCN)C(=O)N[C@@H](CC(N)=O)C(=O)N[C@@H]([C@@H](C)O)C(=O)N[C@@H](C)C(=O)N[C@@H]([C@@H](C)O)C(=O)N1)[C@@H](C)O)C(C)C)C(=O)N[C@@H](CC(C)C)C(=O)N1CCC[C@H]1C(=O)N1CCC[C@H]1C(=O)N[C@H](C(=O)N[C@@H](CC(N)=O)C(=O)N[C@H](C(=O)NCC(=O)N[C@@H](CO)C(=O)N[C@@H](CC(N)=O)C(=O)N[C@H](C(=O)N[C@@H](Cc1ccc(O)cc1)C(N)=O)[C@@H](C)O)C(C)C)[C@@H](C)O [^25,28,29Pro-h-amylin]
stability characteristics [5]: more desirable
tendency to adsorb onto glass [6]: does not have a tendency to adsorb onto the glass
amylin activity in vivo (treated test animals): provoking marked hyperlactemia followed by hyperglycemia

Compound: des-^1Lys-h-amylin (CNTATCATQRLANFLVHSSNNFGAILSSTNVGSNTY) [human amylin analog of formula I]
amylin activity in vivo (treated test animals): provoking marked hyperlactemia followed by hyperglycemia

Compound: COc1ccc(C2CNC(=O)C2)cc1OC1CCCC1 (centres unmarked) [rolipram]
relative time exploring the novel object (memory index), in words (mice [7]): increased the relative time exploring the novel object

baseline activity, agent alone (mice [1]): did not affect baseline activity
Compound: CC(C)C[C@H](NC(=O)[C@H](CC(N)=O)NC(=O)[C@H](CC(N)=O)NC(=O)[C@H](CO)NC(=O)[C@H](CO)NC(=O)[C@H](CCCNC(=N)N)NC(=O)[C@@H](NC(=O)[C@H](CC(C)C)NC(=O)[C@H](Cc1ccccc1)NC(=O)[C@H](CC(N)=O)NC(=O)[C@H](C)NC(=O)[C@H](CC(C)C)NC(=O)[C@H](CCCNC(=N)N)NC(=O)[C@H](CCC(N)=O)NC(=O)[C@@H](NC(=O)[C@H](C)NC(=O)[C@@H]1CSSC[C@H](NC(=O)[C@@H](N)CCCCN)C(=O)N[C@@H](CC(N)=O)C(=O)N[C@@H]([C@@H](C)O)C(=O)N[C@@H](C)C(=O)N[C@@H]([C@@H](C)O)C(=O)N1)[C@@H](C)O)C(C)C)C(=O)NCC(=O)N1CCC[C@H]1C(=O)N[C@H](C(=O)N[C@@H](CC(C)C)C(=O)N1CCC[C@H]1C(=O)N1CCC[C@H]1C(=O)N[C@H](C(=O)N[C@@H](CC(N)=O)C(=O)N[C@H](C(=O)NCC(=O)N[C@@H](CO)C(=O)N[C@@H](CC(N)=O)C(=O)N[C@H](C(=O)N[C@@H](Cc1ccc(O)cc1)C(N)=O)[C@@H](C)O)C(C)C)[C@@H](C)O)C(C)C [amylin]

Compound: ^28Pro-h-amylin (KCNTATCATQRLANFLVHSSNNFGAILPSTNVGSNTY) [human amylin analog of formula I]
amylin activity in vivo (treated test animals): provoking marked hyperlactemia followed by hyperglycemia
